Measured values: patent publication US20220259302A1, “METHODS AND COMPOSITIONS FOR THE IMPROVEMENT OF LYSOSOMAL FUNCTION AND TREATMENT OF NEURODEGENERATIVE DISEASE” (VANDERBILT UNIVERSITY, priority 2017, published 2022)
“Also recorded” adds a separate entry of the source.

How the values were obtained:
[1] = tested on: lamp1-positive lysosomes in neurons; assay: intracellular lysosome size in neurons of aged mice (lamp1 and CatD immunostaining); format: in vivo, mouse; details: aged mice treated with apocynin compared to water
Text: Brain sections from 5 month and 20 month old female mice were immunostained with antibodies against lamp1 and parvalbumin (PV), chosen to allow lysosomes in individual neurons to be analyzed. In old versus young animals, lamp1-labeled lysosomes are larger in both PV neurons as well as surrounding pyramidal neurons. Lysosomes in PV neurons were quantified in 1 μm thick optical sections with ImageJ using Analyze Particles function; n=8 young, n=7 old. *p<0.001, Mann-Whitney Rank Sum test.
Mice were treated with apocynin in drinking water (initial dose 5 mg/kg and then ramping up to 100 mg/kg) beginning at 12 months old for 5 months. […]
An antigen retrieval method was performed on the sections for most antigens by heating in 10 mM citrate buffer (pH 6.0) for 10 minutes at 90° C. […] With HRP-conjugated secondary antibodies, fluorescence was developed with fluorescein or cyanine 3 TSA amplification systems. […]
Images were captured using Zeiss LSM 510 or LSM 810 multiphoton laser confocal microscopes. […] Images were then analyzed and processed using Metamorph or Fiji software. To quantify the clusters of p62-containing aggregates, images were taken for 6 hippocampal regions from three sections per mouse, with 4 mice for each group. Hippocampal regions were divided into different subregions, and p62 clusters were counted. […]

[2] = tested on: p62-positive aggregates in hippocampus; assay: p62-positive aggregates in hippocampus of aging mice after long-term treatment in drinking water; format: in vivo, mouse
Description: Female C57BL6 mice received apocynin (50 mg/kg) or C3 (1 mg/kg/day) in their water from 12-17 mos of age, then perfused. Fixed brain were sectioned, and immunostained for p62. Confocal images were analyzed for 6 hippocampi/three sections per mouse, 4 mice per group. To quantify the p62-containing aggregates, aggregates were individually circled in the depicted region by a blinded investigator, and aggregate areas measured using ImageJ. Areas covered by aggregates, and number of clusters, are shown. Mean±SEM, *p<0.05, ***p<0.001, Mann-Whitney Rank Sum test. Animal studies were approved by the Animal Care Program at the University of California, San Diego, and Vanderbilt University Medical Center and are in accordance with the PHS Guide for the Care and Use of Laboratory Animals, USDA Regulations, and the AVMA Panel on Euthanasia. Young (3 to 5 month) and old (17 to 27 month) C57BL/6 mice, Tam-Thy1-YFP-Crc, tdTomato or 24 month old GFAP/GFP transgenic mice (JAX, 010835) were used for experiments. Lines which have the Tam-Thy1-YFP-Cre express both the Cre recombinase and YFP under control of the Thy1 promoter, which drives expression in a majority of hippocampal and cortical excitatory neurons, but not inhibitory neurons. Tam-Thy1-YFP-Cre:Stat3flox/flox (TF) mice have been generated, and have also been crossed with the Rosa26-tdTomato reporter mouse line to produce Tam-Thy1-YFP-Cre:Stat3flox/flox:tdTom (TFTD) mice. These reporter mice will express tdTom fluorescence in response to tamoxifen. […] The sections were kept in 30% sucrose, 30% ethylene glycol, and 1% PVP-40 at −20° C. until they were ready to be processed for immunostaining. […] With HRP-conjugated secondary antibodies, fluorescence was developed with fluorescein or cyanine 3 TSA amplification systems. […] Images were then analyzed and processed using Metamorph or Fiji software. To quantify the clusters of p62-containing aggregates, images were taken for 6 hippocampal regions from three sections per mouse, with 4 mice for each group. […]

lysosomal v-ATPase = lysosomal v-ATPase (Homo sapiens, UniProt P27449); details: direct inhibition of lysosome acidification; cited from earlier work
Nox2, Nox4 and p22phox = assay: Nox induction in brain of mice injected with IL-6 (qRT-PCR, Western blot, immunostaining); format: in vivo, mouse; details: 4 month and 24 month-old C57Bl/6 mice, IL-6 5 μg/kg on two consecutive days
Description: These are the first data showing that inhibiting Nox activity can improve lysosome function in brain in vivo. […] Based on the observation herein that IL-6 is responsible for Nox2 induction in aging brain, and thus here, it is determined whether IL-6 mediates lysosome dysfunction. […] have a targeted deletion of Stat3 in neurons, and pharmacological inhibition of Nox-derived superoxide production can be used to test each of these possibilities. […] This increase occurred not only in microglia, but cortical and hippocampal neurons, and in synaptosomes. To confirm anti-Nox2 Ab specificity, slices and tissue from gp91phox−/− (Nox2−/−) mice were always included as controls.

mouse cortical cultures = assay: lysosome degradation of proteins in mouse cortical cultures exposed to IL-6; format: cell-based
Description: Also, IL-6 can induce expression of inflammatory mediators, including TNFα, IL-6, IL-1β, Nox2 and Nox4, through both canonical pTyr-Stat3 transcription, and through noncanonical Stat3 NFκB transcription. Here, primary mouse cultures can be prepared on coverslip dishes as described and treated with IL-6 (10 ng/ml and 100 ng/ml) or a vehicle controls (media), daily for 4 days. Bafilomycin (100 nM) can be included in some dishes as a positive control for direct v-ATPase inhibition. Cultures can be fixed with 4% paraformaldehyde (PFA), and immunostained. Based on the data, accumulation of large lamp1 and p62-positive lysosomes in IL-6 and BAF treated cells can be observed. To then assess the role of redox effects on the v-ATPase, cultures can be co-treated with one of three antioxidants, TEMPOL (general radical scavenging), the C3 compound (catalytic superoxide dismutase, to reduce Nox-derived superoxide, regardless of isoform(s) which are contributing), and N-acetyl cysteine (to increase glutathione levels). When the v-ATPase is inhibited through its redox site, antioxidant treatment can prevent accumulation of undigested contents (p62, lamp1), and prevent enlargement of lysosomes. […]

lysosomal v-ATPase, sequence (P27449 whole entry): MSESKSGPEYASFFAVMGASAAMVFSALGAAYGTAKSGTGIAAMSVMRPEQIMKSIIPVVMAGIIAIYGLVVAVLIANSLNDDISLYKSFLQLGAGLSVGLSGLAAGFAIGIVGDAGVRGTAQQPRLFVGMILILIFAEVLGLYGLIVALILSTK
lysosomal v-ATPase, sequence (P38606 whole entry partner): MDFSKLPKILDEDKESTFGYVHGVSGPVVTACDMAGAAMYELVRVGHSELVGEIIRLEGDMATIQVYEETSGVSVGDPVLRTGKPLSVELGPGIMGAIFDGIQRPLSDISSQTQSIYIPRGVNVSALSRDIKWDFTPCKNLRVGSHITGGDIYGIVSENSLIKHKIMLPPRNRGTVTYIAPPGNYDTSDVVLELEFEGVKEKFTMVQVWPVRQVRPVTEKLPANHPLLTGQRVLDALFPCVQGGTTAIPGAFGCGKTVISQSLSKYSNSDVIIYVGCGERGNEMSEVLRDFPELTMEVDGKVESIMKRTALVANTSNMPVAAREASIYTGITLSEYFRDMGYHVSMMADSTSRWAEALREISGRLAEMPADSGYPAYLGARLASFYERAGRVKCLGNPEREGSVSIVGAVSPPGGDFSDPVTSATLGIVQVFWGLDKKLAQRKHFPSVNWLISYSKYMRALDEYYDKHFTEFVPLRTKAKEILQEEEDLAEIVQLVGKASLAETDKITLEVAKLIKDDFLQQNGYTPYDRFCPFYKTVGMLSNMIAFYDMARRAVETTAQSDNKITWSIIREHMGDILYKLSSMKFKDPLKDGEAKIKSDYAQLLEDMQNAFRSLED

COc1cc(C(C)=O)ccc1O [apocynin]
size of lysosomes in neurons (lamp1 and CatD immunostaining) [1]: significant normalization (reduction) of intracellular lysosome size; also recorded: significantly reduced the size of lysosomes
cargo clearance ([2]; apocynin 100 mg/kg/day, as in FIG. 5): improved cargo clearance
accumulation of p62 aggregates (number and size of p62-positive aggregates) in hippocampus ([2]; female C57BL6 mice, in drinking water from 12-17 mos of age, apocynin 50 mg/kg/day, C3 1 mg/kg/day): reduction of both the number, and size of p62-positive aggregates; also recorded: reduces hippocampal aggregates; also recorded: lessons the accumulation of p62 aggregates
undegraded lysosome material throughout brain ([2]; mice treated with apocynin (FIG. 5)): robust and highly significant reduction in undegraded lysosome material throughout brain

CO/C1=C\C(C)=C\[C@@H](C)[C@@H](O)[C@@H](C)C/C(C)=C/C=C/[C@H](OC)[C@@H]([C@@H](C)[C@@H](O)[C@H](C)[C@@]2(O)C[C@@H](O)[C@H](C)[C@@H](C(C)C)O2)OC1=O [bafilomycin]
lysosome size (lysosomal v-ATPase): rapidly increases lysosome size within hours

IL-6: inflammatory cytokine interleukin-6
induction of Nox2, Nox4 and p22phox in brain (Nox2, Nox4 and p22phox): induction of Nox2, Nox4 and p22phox
lysosome degradation of proteins, including p62 (mouse cortical cultures): impairs lysosome degradation of proteins
